The source of these data is patent US20240368135A1 (VERTEX PHARMACEUTICALS INCORPORATED, priority 2021, published 2024).

human NaV 1.8, sequence (Q9Y5Y9 126-399 limits assumed): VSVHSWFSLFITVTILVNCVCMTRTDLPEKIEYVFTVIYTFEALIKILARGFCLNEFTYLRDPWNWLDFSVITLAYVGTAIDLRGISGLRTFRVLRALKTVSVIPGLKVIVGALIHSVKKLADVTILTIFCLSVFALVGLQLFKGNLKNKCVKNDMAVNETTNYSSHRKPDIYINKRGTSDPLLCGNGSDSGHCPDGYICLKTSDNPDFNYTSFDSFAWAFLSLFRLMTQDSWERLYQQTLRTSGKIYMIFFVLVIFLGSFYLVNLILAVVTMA
human NaV 1.8, sequence (Q9Y5Y9 660-890 limits assumed): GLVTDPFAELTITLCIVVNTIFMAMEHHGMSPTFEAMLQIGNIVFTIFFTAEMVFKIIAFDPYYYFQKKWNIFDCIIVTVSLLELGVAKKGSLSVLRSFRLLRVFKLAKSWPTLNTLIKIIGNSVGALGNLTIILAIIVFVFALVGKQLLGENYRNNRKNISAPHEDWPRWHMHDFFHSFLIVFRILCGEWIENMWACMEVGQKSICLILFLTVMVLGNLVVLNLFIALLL
human NaV 1.8, sequence (Q9Y5Y9 1148-1722 limits assumed): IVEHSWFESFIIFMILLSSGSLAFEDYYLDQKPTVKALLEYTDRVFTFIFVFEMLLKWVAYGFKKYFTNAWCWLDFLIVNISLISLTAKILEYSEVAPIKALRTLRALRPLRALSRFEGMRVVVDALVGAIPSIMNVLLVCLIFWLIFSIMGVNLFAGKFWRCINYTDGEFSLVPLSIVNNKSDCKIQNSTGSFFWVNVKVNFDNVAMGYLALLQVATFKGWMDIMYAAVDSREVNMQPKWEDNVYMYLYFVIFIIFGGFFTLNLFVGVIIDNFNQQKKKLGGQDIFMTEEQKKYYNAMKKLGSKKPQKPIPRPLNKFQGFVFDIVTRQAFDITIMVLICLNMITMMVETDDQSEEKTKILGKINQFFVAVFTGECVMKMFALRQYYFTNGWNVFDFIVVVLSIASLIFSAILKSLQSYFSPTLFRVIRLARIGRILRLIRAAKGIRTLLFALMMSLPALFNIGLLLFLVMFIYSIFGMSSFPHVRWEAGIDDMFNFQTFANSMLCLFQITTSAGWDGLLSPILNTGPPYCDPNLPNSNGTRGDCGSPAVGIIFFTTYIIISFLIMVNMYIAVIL

In one test the target is human NaV 1.8 (Homo sapiens, UniProt Q9Y5Y9). The test can be described thus: E-VIPR assay detecting and measuring NaV inhibition properties. Format: cell-based. The following applies: HEK cells expressing truncated human NaV 1.8; in the presence of human serum (compound numbers followed by *); read-out: IC50 in the E-VIPR Assay, performed in the presence of human serum. The method, boiled down:
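Membrane potential was followed by coumarin/oxonol FRET during electrical field stimulation of matrigel-seeded HEK cells carrying truncated human NaV1.8 plus KIR2.1. Dosing used 11 points, 3-fold steps, top 300 nM final, 0.625% DMSO, with or without 25% human serum.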
Turning to `COc1cc(F)ccc1C1CC(C)(C(F)(F)F)OC1C(=O)Nc1ccnc(S(C)(=N)=O)c1` (centres unmarked) [Compound 715, 3-(4-fluoro-2-methoxy-phenyl)-5-methyl-N-[2-(methylsulfonimidoyl)-4-pyridyl]-5-(trifluoromethyl)tetrahydrofuran-2-carboxamide], the 50% inhibitory concentration (IC50) lay within 100 to 1000 nM.

Still in this test, the particulars now being: HEK cells expressing truncated human NaV 1.8; no human serum; read-out: IC50 in the E-VIPR Assay.
Regarding `COc1c([C@H]2[C@H](C(=O)Nc3cn(C4CCOCC4)nc3C)O[C@@](C)(C(F)(F)F)[C@H]2C)ccc(F)c1F` [Compound 325, (2R,3S,4S,5R)-3-(3,4-difluoro-2-methoxyphenyl)-4,5-dimethyl-N-(3-methyl-1-(tetrahydro-2H-pyran-4-yl)-1H-pyrazol-4-yl)-5-(trifluoromethyl)-tetrahydrofuran-2-carboxamide], the half-maximal inhibitory concentration (IC50) was 10 to 100 nM.

Consider `COc1c([C@@H]2C[C@](C)(C(F)(F)F)O[C@H]2C(=O)Nc2ccnc(C(C)(O)CO)c2)ccc(F)c1F` (single isomer, unassigned) [Compound 701], for which the concentration for half-maximal inhibition (IC50) lay within 10 to 100 nM.

For the compound `COc1c([C@H]2[C@H](C(=O)Nc3ccnc(N4C[C@H]5C[C@@H](C4=O)N5C)c3)O[C@@](C)(C(F)(F)F)[C@H]2C)ccc(F)c1F` (single isomer, unassigned) [Compound 509, rel-(2R*,3S*,4S*,5R*)-3-(3,4-difluoro-2-methoxyphenyl)-4,5-dimethyl-N-(2-((1S,5R)-6-methyl-2-oxo-3,6-diazabicyclo[3.1.1]heptan-3-yl)pyridin-4-yl)-5-(trifluoromethyl)tetrahydrofuran-2-carboxamide], the IC50 was 10 to 100 nM.

Turning to `COc1c([C@H]2[C@H](C(=O)Nc3ccc(N)nc3)O[C@@](C)(C(F)(F)F)[C@H]2C)ccc(F)c1F` [Compound 523, (2R,3S,4S,5R)—N-(6-aminopyridin-3-yl)-3-(3,4-difluoro-2-methoxyphenyl)-4,5-dimethyl-5-(trifluoromethyl)tetrahydrofuran-2-carboxamide], the half-maximal inhibitory concentration (IC50) is below 10 nM.

As for `COc1c([C@H]2[C@H](C(=O)Nc3ccnc(N4CCNCC4=O)c3)O[C@@](C)(C(F)(F)F)[C@H]2C)ccc(F)c1F` [Compound 411, (2R,3S,4S,5R)-3-(3,4-difluoro-2-methoxyphenyl)-4,5-dimethyl-N-(2-(2-oxopiperazin-1-yl)pyridin-4-yl)-5-(trifluoromethyl)-tetrahydrofuran-2-carboxamide], the IC50 is below 10 nM.

As to `Cc1nn(C(F)F)cc1NC(=O)[C@@H]1O[C@@](C)(C(F)(F)F)[C@@H](C)[C@H]1c1ccc(F)c(F)c1OCC(=O)O` [Compound 603, 2-(6-((2R,3S,4S,5R)-2-((1-(difluoromethyl)-3-methyl-1H-pyrazol-4-yl)carbamoyl)-4,5-dimethyl-5-(trifluoromethyl)tetrahydrofuran-3-yl)-2,3-difluorophenoxy)acetic acid], the IC50 is at least 1000 nM.

For `Cc1cncc(NC(=O)C2OC(C)(C(F)(F)F)C(C)C2c2ccc(F)c(F)c2OC2CC(O)C2)c1` [Compound 665, (2R,3S,4S,5R)-3-(3,4-difluoro-2-((1S,3R)-3-hydroxycyclobutoxy)phenyl)-4,5-dimethyl-N-(5-methylpyridin-3-yl)-5-(trifluoromethyl)tetrahydrofuran-2-carboxamide], the IC50 lay in the range of 10 to 100 nM.

As to `COc1c([C@H]2[C@H](C(=O)N3Cc4ccncc4C3)O[C@@](C)(C(F)(F)F)[C@H]2C)ccc(F)c1F` [Compound 323, ((2R,3S,4S,5R)-3-(3,4-difluoro-2-methoxyphenyl)-4,5-dimethyl-5-(trifluoromethyl)-tetrahydrofuran-2-yl)(1,3-dihydro-2H-pyrrolo[3,4-c]pyridin-2-yl)methanone], the IC50 was at least 1000 nM.

On to `COc1c([C@H]2[C@H](C(=O)Nc3ccnc(OC4CCN(C)C4=O)c3)O[C@@](C)(C(F)(F)F)[C@H]2C)ccc(F)c1F` (single isomer, unassigned) [Compound 198, rel-(2R*,3S*,4S*,5R*)-3-(3,4-difluoro-2-methoxyphenyl)-4,5-dimethyl-N-(2-((1-methyl-2-oxopyrrolidin-3-yl)oxy)pyridin-4-yl)-5-(trifluoromethyl)tetrahydrofuran-2-carboxamide], for which the IC50 lay in the range of 10 to 100 nM.

For the compound `COc1c([C@H]2[C@H](C(=O)Nc3cnc4nncn4c3)O[C@@](C)(C(F)(F)F)[C@H]2C)ccc(F)c1F` [Compound 388, (2R,3S,4S,5R)-N-([1,2,4]triazolo[4,3-a]pyrimidin-6-yl)-3-(3,4-difluoro-2-methoxyphenyl)-4,5-dimethyl-5-(trifluoromethyl)tetrahydrofuran-2-carboxamide], the 50% inhibitory concentration (IC50) lay in the range of 10 to 100 nM.

Take `COc1c([C@H]2[C@H](C(=O)Nc3ccnc([C@H](O)[C@@H](C)O)c3)O[C@@](C)(C(F)(F)F)[C@H]2C)ccc(F)c1F` (single isomer, unassigned) [Compound 203, rel-(2R*,3S*,4S*,5R*)-3-(3,4-difluoro-2-methoxyphenyl)-N-(2-((1S,2R)-1,2-dihydroxypropyl)pyridin-4-yl)-4,5-dimethyl-5-(trifluoromethyl)tetrahydrofuran-2-carboxamide]: the IC50 was below 10 nM.

With `COc1c([C@H]2[C@H](C(=O)N[C@H]3C[C@@H]3c3cnn(C)c3)O[C@@](C)(C(F)(F)F)[C@H]2C)ccc(F)c1F` (relative stereo) [Compound 267, rel-(2R*,3S*,4S*,5R*)-3-(3,4-difluoro-2-methoxyphenyl)-4,5-dimethyl-N-((1S,2R)-2-(1-methyl-1H-pyrazol-4-yl)cyclopropyl)-5-(trifluoromethyl)tetrahydrofuran-2-carboxamide], the 50% inhibitory concentration (IC50) was below 10 nM.

Take `CCOc1c([C@H]2[C@H](C(=O)Nc3ccnc([S@@](C)(=O)=NC)c3)O[C@@](C)(C(F)(F)F)[C@H]2C)ccc(F)c1F` (relative stereo) [Compound 12, rel-(2R,3S,4S,5R)—N-(2-(N,S-dimethylsulfonimidoyl)pyridin-4-yl)-3-(2-ethoxy-3,4-difluorophenyl)-4,5-dimethyl-5-(trifluoromethyl)tetrahydrofuran-2-carboxamide]: the IC50 was below 10 nM.

Consider `COc1c([C@H]2[C@H](C(=O)NC(C)c3cnn(C)c3)O[C@@](C)(C(F)(F)F)[C@H]2C)ccc(F)c1F` (stereo partly drawn) [Compound 296, (2R,3S,4S,5R)-3-(3,4-difluoro-2-methoxyphenyl)-4,5-dimethyl-N-(1-(1-methyl-1H-pyrazol-4-yl)ethyl)-5-(trifluoromethyl)tetrahydrofuran-2-carboxamide], for which the IC50 is at least 1000 nM.

`COc1c([C@H]2[C@H](C(=O)Nc3csnc3C)O[C@@](C)(C(F)(F)F)[C@H]2C)ccc(F)c1F` [Compound 327, (2R,3S,4S,5R)-3-(3,4-difluoro-2-methoxyphenyl)-4,5-dimethyl-N-(3-methylisothiazol-4-yl)-5-(trifluoromethyl)-tetrahydrofuran-2-carboxamide]: the IC50 is below 10 nM.

As to `COc1c([C@H]2[C@H](C(=O)Nc3ccnc(C(O)CF)c3)O[C@@](C)(C(F)(F)F)[C@H]2C)ccc(F)c1F` (single isomer, unassigned) [Compound 253, rel-(2R*,3S*,4S*,5R*)-3-(3,4-difluoro-2-methoxyphenyl)-N-(2-(2-fluoro-1-hydroxyethyl)pyridin-4-yl)-4,5-dimethyl-5-(trifluoromethyl)tetrahydrofuran-2-carboxamide], the IC50 is below 10 nM.

As to `CCOc1c(C2C(C(=O)Nc3ccnc(S(C)(=N)=O)c3)OC(C)(C(F)(F)F)C2C)ccc(F)c1F` (single isomer, unassigned) [Compound 109, 3-(2-ethoxy-3,4-difluoro-phenyl)-4,5-dimethyl-N-[2-(methylsulfonimidoyl)-4-pyridyl]-5-(trifluoromethyl)tetrahydrofuran-2-carboxamide], the half-inhibitory concentration (IC50) was 100 to 1000 nM.

For the compound `COc1c([C@H]2[C@H](C(=O)Nc3ccc(C#N)nc3)O[C@@](C)(C(F)(F)F)[C@H]2C)ccc(F)c1F` [Compound 192, (2R,3S,4S,5R)-N-(6-cyanopyridin-3-yl)-3-(3,4-difluoro-2-methoxyphenyl)-4,5-dimethyl-5-(trifluoromethyl)tetrahydrofuran-2-carboxamide], the IC50 lay in the range of 10 to 100 nM.

`COc1c([C@H]2[C@H](C(=O)Nc3cc(C)nn3CCC#N)O[C@@](C)(C(F)(F)F)[C@H]2C)ccc(F)c1F` [Compound 292, (2R,3S,4S,5R)-N-(1-(2-cyanoethyl)-3-methyl-1H-pyrazol-5-yl)-3-(3,4-difluoro-2-methoxyphenyl)-4,5-dimethyl-5-(trifluoromethyl)tetrahydrofuran-2-carboxamide]: the IC50 is at least 1000 nM.

On to `COCCOc1c([C@H]2[C@H](C(=O)Nc3ccnc(CCO)c3)O[C@@](C)(C(F)(F)F)[C@H]2C)ccc(F)c1F` [Compound 648, (2R,3S,4S,5R)-3-[3,4-difluoro-2-(2-methoxyethoxy)phenyl]-N-[2-(2-hydroxyethyl)-4-pyridyl]-4,5-dimethyl-5-(trifluoromethyl)tetrahydrofuran-2-carboxamide], for which the IC50 was below 10 nM.

Regarding `COc1c([C@H]2[C@H](C(=O)Nc3cc(CO)nn3C)O[C@@](C)(C(F)(F)F)[C@H]2C)ccc(F)c1F` [Compound 20, (2R,3S,4S,5R)-3-(3,4-difluoro-2-methoxy-phenyl)-N-[5-(hydroxymethyl)-2-methyl-pyrazol-3-yl]-4,5-dimethyl-5-(trifluoromethyl)tetrahydrofuran-2-carboxamide], the IC50 was 10 to 100 nM.

On to `COc1c([C@H]2[C@H](C(=O)Nc3ccnc(O[C@@H]4COC[C@@H]4O)c3)O[C@@](C)(C(F)(F)F)[C@H]2C)ccc(F)c1F` (single isomer, unassigned) [Compound 239, rel-(2R*,3S*,4S*,5R*)-3-(3,4-difluoro-2-methoxyphenyl)-N-(2-(((3R,4S)-4-hydroxytetrahydrofuran-3-yl)oxy)pyridin-4-yl)-4,5-dimethyl-5-(trifluoromethyl)tetrahydrofuran-2-carboxamide], for which the IC50 was below 10 nM.
